US10254456B2, “Polarizing plate composition, polarizing plate protective film, polarizer, polarizing plate, and liquid crystal display device” (FUJIFILM Corporation, priority 2014, dated 2019)

Experiment: Solubility of additive in water
Format: physicochemical
Settings: 100 ml of pure water at 25° C.
Description: The amount of the additive dissolving in 100 ml of pure water at 25° C. was measured and evaluated according to the following criteria.

| Structure (SMILES) | Solubility in water |
| --- | --- |
| O=C1Nc2ccccc2NC(=O)C1Cc1ccc(S(=O)(=O)[O-])cc1S(=O)(=O)O.[Na+] [3-8] | A+ (The amount of the additive dissolving in 100 ml of pure water was equal to or greater than 5 g.) |
| O=C1NNC(=O)C1c1ccccc1 [2-1] | A (The amount of the additive dissolving in 100 ml of pure water was equal to or greater than 3 g and less than 5 g.) |
| CC1(C)CC(=O)C(Cc2ccccc2S(=O)(=O)O)C(=O)C1 [3-3] | A+ (The amount of the additive dissolving in 100 ml of pure water was equal to or greater than 5 g.) |
| CN1C(=O)C(Cc2ccccc2S(=O)(=O)[O-])C(=O)c2ccccc21.[Na+] (stereo not drawn) [3-7] | A+ (The amount of the additive dissolving in 100 ml of pure water was equal to or greater than 5 g.) |
| O=C1C(Cc2ccccc2S(=O)(=O)[O-])C(=O)N(c2ccccc2)N1c1ccccc1.[Na+] [3-6] | A+ (The amount of the additive dissolving in 100 ml of pure water was equal to or greater than 5 g.) |
| CC(C)C1C(=O)NNC1=O [2-3] | A (The amount of the additive dissolving in 100 ml of pure water was equal to or greater than 3 g and less than 5 g.) |
| O=C1CN(c2ccccc2)C(=O)C1Cc1ccccc1S(=O)(=O)O (stereo not drawn) [3-10] | A+ (The amount of the additive dissolving in 100 ml of pure water was equal to or greater than 5 g.) |
| Nc1c(F)c(F)c(C(=O)O)c(F)c1F [Organic acid 2, reference compound] | A (The amount of the additive dissolving in 100 ml of pure water was equal to or greater than 3 g and less than 5 g.) |
| O=C1C(Cc2ccc(S(=O)(=O)[O-])cc2S(=O)(=O)O)C(=O)N2CCCCN12.[Na+] [3-9] | A+ (The amount of the additive dissolving in 100 ml of pure water was equal to or greater than 5 g.) |
| [Cl-].[Cl-].[Zn+2] [ZnCl2, reference compound] | A+ (The amount of the additive dissolving in 100 ml of pure water was equal to or greater than 5 g.) |
| O=CC1C(=O)N(c2ccccc2)N(c2ccc(S(=O)(=O)[O-])cc2)C1=O.[Na+] (stereo not drawn) [5-5] | A+ (The amount of the additive dissolving in 100 ml of pure water was equal to or greater than 5 g.) |
| O=C1c2ccccc2C(=O)C1Cc1ccccc1S(=O)(=O)O [3-4] | A+ (The amount of the additive dissolving in 100 ml of pure water was equal to or greater than 5 g.) |
| O=Cc1ccc(CC2C(=O)N(c3ccccc3)N(c3ccc(S(=O)(=O)[O-])cc3)C2=O)cc1.[Na+] (stereo not drawn) [5-1] | A+ (The amount of the additive dissolving in 100 ml of pure water was equal to or greater than 5 g.) |
| CC(=O)C(Cc1ccccc1S(=O)(=O)[O-])C(=O)c1ccccc1.[Na+] (stereo not drawn) [3-2] | A+ (The amount of the additive dissolving in 100 ml of pure water was equal to or greater than 5 g.) |
| O=C1NC(=O)N(Cc2ccccc2)C(=O)C1c1ccccc1 (stereo not drawn) [Organic acid 1, reference compound] | C (The amount of the additive dissolving in 100 ml of pure water was less than 1 g.) |
